# In ChEMBL document CHEMBL1147205 (Eur J Med Chem, 2007):
# Activity calls are given as the source filed them. No cut-off for these calls is given here.
# Legend:
# [1] = artificial membrane
# Description: Affinity to immobilized artificial membrane by reversed phase HPLC
# [2] = physchem; settings: phosphate buffer, pH 5
# Description: Solubility in phosphate buffer at pH 5.0
# [3] = tested on: Macrophage; experiment: Inhibition of SP-A degradation in rabbit alveolar macrophages; assay type: functional, cell-based; settings: Oryctolagus cuniculus
# [4] = physchem; settings: phosphate buffer, pH 7.5
# Description: Lipophilicity in phosphate buffer at pH 7.5
# [5] = tested on: Macrophage; experiment: Effect on rabbit alveolar macrophages assessed as reduction in viability at 50 uM by trypan blue exclusion; assay type: functional, cell-based; settings: Oryctolagus cuniculus
# [6] = physchem; settings: phosphate buffer, pH 7.4
# Description: Solubility in phosphate buffer at pH 7.4
logD IAM [1],solubility [2],logD [4],solubility [6],Compound,Activity [3],Activity [5]
3.56,1040 µM,7.98,212 µM,CCCCc1oc2ccccc2c1C(=O)c1cc(I)c(OCCCN(C)C)c(I)c1,Active,Active
4.23,1860 µM,7.82,49 µM,CCCCc1oc2ccccc2c1C(=O)c1cc(I)c(OCCN2CCCC2)c(I)c1,Active,Active
4.58,230 µM,8.74,14 µM,CCCCc1oc2ccccc2c1C(=O)c1cc(I)c(OCCN(C(C)C)C(C)C)c(I)c1,–,–
3.36,170 µM,6.15,15 µM,CCCCc1oc2ccccc2c1C(=O)c1cc(I)c(OCCN2CCOCC2)c(I)c1,–,–
3.64,2210 µM,7.15,51 µM,CCCCc1oc2ccccc2c1C(=O)c1cc(I)c(OCCN(C)C)c(I)c1,–,–
4.28,2220 µM,8.04,23 µM,CCCCc1oc2ccccc2c1C(=O)c1cc(I)c(OCCN2CCCCC2)c(I)c1,Active,–
